Experimental data: publication PMC5118709, “Identification of Polo-like kinase 1 interaction inhibitors using a novel cell-based assay” (Scientific Reports, 2016)

Key:
HeLa cells = experiment: mitotic defect phenotypes by immunofluorescence; type: cell-based; conditions: 10 μM, 7 h
Outline: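 HeLa cells on poly-L-lysine coverslips treated 7 h, fixed in 4% formaldehyde/PHEM at 37 °C. Immunostained for pericentrin and α-tubulin with DAPI for DNA; spindle organisation scored by fluorescence microscopy against DMSO controls.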

Plk1-Map interaction = Plk1-Map interaction (Homo sapiens, UniProt P53350); experiment: BRET Plk1-Map, stable HEK293T Plk1-Luc/GFP-Map cell line; type: cell-based; parameters: cDNAs for the human full length Plk1; expressed in transfected cells
Plk1-Map interaction, sequence (P53350 whole entry): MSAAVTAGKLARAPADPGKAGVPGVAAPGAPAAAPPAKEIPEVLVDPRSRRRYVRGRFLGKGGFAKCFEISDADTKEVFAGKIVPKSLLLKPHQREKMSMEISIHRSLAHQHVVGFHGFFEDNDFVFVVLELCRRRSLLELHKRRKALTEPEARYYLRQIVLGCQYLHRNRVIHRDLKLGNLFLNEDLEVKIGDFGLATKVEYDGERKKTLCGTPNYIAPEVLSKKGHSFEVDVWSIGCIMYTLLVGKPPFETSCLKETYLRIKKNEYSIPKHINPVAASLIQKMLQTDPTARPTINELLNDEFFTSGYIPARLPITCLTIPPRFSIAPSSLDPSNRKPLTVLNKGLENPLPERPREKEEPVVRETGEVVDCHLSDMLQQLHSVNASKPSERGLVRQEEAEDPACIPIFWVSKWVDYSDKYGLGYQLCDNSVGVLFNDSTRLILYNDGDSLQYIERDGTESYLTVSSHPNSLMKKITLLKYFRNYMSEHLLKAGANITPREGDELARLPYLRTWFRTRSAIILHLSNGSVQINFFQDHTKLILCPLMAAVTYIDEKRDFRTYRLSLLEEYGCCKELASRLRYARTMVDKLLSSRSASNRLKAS
Description: To develop a cell-based assay for the identification of Plk1 interaction inhibitors, we used Bioluminescence Resonance Energy Transfer (BRET)[42][43]. The assay monitors the interaction in HEK293T cells between Plk1 and Map205, a protein that we previously identified as an interactor of Drosophila Polo (Plk1 ortholog) on its PBD[44]. Although no ortholog of Drosophila Map205 has been found in vertebrates, this protein robustly interacts with vertebrate Plk1. […] Importantly, crystallography with zebrafish Plk1 has recently shown that Map205 nevertheless docks in the canonical phosphopeptide binding site of the PBD, with the natural phospho-mimetic Glu314 residue (Fig. 1A)[45]. In our assay, human Plk1 and a fragment of Drosophila Map205 (Map205_254-416 = Map) are respectively fused to Renilla luciferase II (Luc) and GFP10 (GFP), giving rise to energy transfer when the proteins are in close proximity (Fig. 1B). […] All combinations of Plk1 and Map tagged with Luc and GFP were tested (Supplementary Fig. S1). The Plk1-Luc/GFP-Map combination was selected because it yielded the highest BRET dynamic window. We then generated clonal stable cell lines co-expressing these two fusion proteins. These cell lines behaved very similarly to each other in BRET, and we selected one line that gave a high and reproducible BRET signal, with a Z′ score of 0.78, indicative of a robust assay for the purpose of a chemical screen (Supplementary Fig. S1).
We used our cell-based assay to screen a library of 112 983 compounds available in-house at IRIC’s High-Throughput Screening (HTS) platform (see Materials & Methods). Compounds were tested on cells in 384-well plates at concentrations between 10 μM and 25 μM, depending on their concentration in the original stocks solutions. BRET readings were taken 2 hours after treatment. Results obtained show a tight, close to normal distribution centered around zero inhibition relative to DMSO-treated controls (Fig. 1D). Compounds inducing at least 30% BRET inhibition were selected. From these, auto-fluorescent compounds and those that induced more than 90% reduction in RLucII luminescence were removed, leaving 800 primary hits, that we then re-tested using the same assay. In parallel, we tested these compounds in a control BRET assay for an unrelated pair of interacting proteins (BRAF-CRAF[46]) to exclude false-positive compounds that could reduce the BRET signal by interfering with light or by modifying the activity of GFP or Luc.
For BRET on transiently transfected cells, 48 hours after the transfection, medium was removed, cells were washed twice with PBS, and then Tyrode solution (140 mM NaCl, 2.7 mM KCl, 12 mM NaHCO3, 5.6 mM D-glucose, 0.49 mM MgCl2, 0.37 mM NaH2PO4, 25 mM HEPES, pH 7.4, where 1 mM CaCl2 was freshly added) was added to the cells. Total fluorescence was first measured using a FlexStation II microplate reader (Molecular Devices), where the GFP10 was excited at 400 nm and read at 510 nm. Then, cells were treated for 5 minutes with 2.5 μM coelenterazine 400a (Gold Technology) before reading BRET2 using the Mithras LB940 microplate reader (Berthold Technologies). BRET2 signal corresponds to the light emitted by the GFP10 acceptor constructs (515 nm ± 20 nm) divided by the light emitted by the RlucII donor constructs (400 nm ± 70 nm). Net BRET2 was calculated by subtracting the background BRET ratio of the RLucII plasmid alone from the BRET ratio obtained by the two BRET partners. The Net BRET2 was plotted according to the GFP10/RLucII ratio, which was obtained by dividing the total fluorescence by the RLucII emission.
For the high throughput chemical screen, cells were amplified and frozen as multiple 1 ml aliquots containing 25 millions of stable HEK293T Plk1-Luc/GFP-Map cells to ensure that cells at the same passage number are used during the screen. […] Five days later, cells were counted and re-suspended in Tyrode solution. […]

Primary screen Plk1-Map (stable) % Inihibition (Plk1-Map interaction; 10-25 μM, 2 h): 67.34%
Primary screen Plk1-Map (stable) % Quench RLuc (Plk1-Map interaction; 10-25 μM, 2 h): 86.24%
Confirmation Plk1-Map (stable) % Inihibition (Plk1-Map interaction; confirmation screen): 30.79%
Confirmation Plk1-Map (stable) % Quench RLuc (Plk1-Map interaction; confirmation screen): 81.37%
Compound: Cc1cc(C(F)(F)F)cc(S(=O)(=O)CCOC(=O)c2cccc(Cl)c2)n1 [Cpd 16, 2-((6-methyl-4-(trifluoromethyl)pyridin-2-yl)sulfonyl)ethyl 3-chlorobenzoate]
2 > pericentrin foci (percentage of cells) (HeLa cells): 23 ± 11%
Disorganized spindles (percentage of cells) (HeLa cells): 58 ± 13%
